The subject of assay [1] is serotonin. Nature of the assay: Antagonistic activity on the effects of serotonin in the gastric lesion test (lesions induced by compound 48/80). It counts as in vivo, rat (male, Wistar inbred strain). From the text:
The compounds of formula (I) and the pharmaceutically acceptable acid addition salts thereof are also potent serotonin-antagonists. The potency of the subject compounds as serotonin-antagonists is clearly evidenced by the results obtained in the following tests wherein the antagonistic activity of the subject compounds on the effect of serotonin is examined.
Antagonistic activity on the effects of serotonin in the gastric lesion test
Comound 48/80 (a mixture of oligomers obtained by condensation of 4-methoxy-N-methylbenzeneethanamine and formaldehyde) is a potent releaser of vasoactive amines from endogenous stores such as, for example, histamine and serotonin. […] The shock, followed by dead, can be avoided if the rats are pretreated with a classical H 1 antagonist.
Male rats of a Wistar inbred strain, weighing 220-250 g, were starved overnight, water being available ad libitum. The test compounds were administered orally as a solution or as a suspension in aqueous medium. A control rat and a "blank" rat received the test compound. One hour later 5-[4-(diphenylmethyl)-1-piperazinylmethyl]-1-methyl-1H-benzimidazole-2-methanol was administered subcutaneously to all rats at the dose of 2.5 mg/kg.
Four hours after the intravenous injection of compound 48/80, the rats were decapitated and the stomachs were removed. Subsequently the stomachs ere inspected for distension and contents (blood, fluid, food) and thoroughly rinsed. The macroscopic lesions were scored from 0 to +++, 0 corresponding to complete absence of visible lesions and the highest score corresponding to reddish rough patches covering more than half the glandular area.

For assay [2], the system named is compound 48/80-induced lethality. As to the kind of experiment: Protection of rats from compound 48/80-induced lethality. The note with it: Rattus norvegicus, 4 h, read-out: Compound 48/80 lethality test in rats-ED50. It counts as in vivo, rat (male, inbred Wistar strain). The procedure: Protection of rats from compound 48/80-induced lethality
The protection from compound 48/80-induced lethal circulatory collapse appears to be a simple way of evaluating quantitatively the antihistaminic activity of test compounds. Male rats of an inbred Wistar strain, weighing 240-260 g were used in the experiment. After overnight starvation the rats were transferred to conditioned laboratories (temp.=21±1° C., relative humidity=65±5%).
The rats were treated subcutaneously or orally with a test compound or with the solvent (NaCl solution, 0.9%). […] Survival after 4 hours is therefore considered to be a safe criterion of a protective effect of drug administration.
The ED50 -values of the compounds of formula (I) are listed in the first column of table 1. Said ED50 -values are the values in mg/kg body weight at which the tested compounds protect 50% of the tested animals against compound 48/80-induced lethality.

Setting [3] is: Rattus norvegicus, po, 4 h; read-out: gastric lesion test ED50 (distension of the stomach and lesions in the glandular area completely absent in 50% of rats).
Where [4] appears, read: Rattus norvegicus, po, 4 h, read-out: gastric lesion test ED50 (distension of the stomach and lesions in the glandular area completely absent in 50% of rats).

Like-named read-outs stand apart in the source and are kept apart here.

As to `Cc1nc2scc(C)n2c(=O)c1CCN1CCC(Nc2nc3ccccc3n2Cc2ccc(F)cc2)CC1` [Compound 1, 6-[2-[4-[[1-[(4-fluorophenyl)methyl]-1H-benzimidazol-2-yl]amino]-1-piperidinyl]ethyl]-3,7-dimethyl-5H-thiazolo[3,2-a]pyrimidin-5-one], the results for the ED50 in assay [1] (setting [3]) and in assay [2] were 0.63 mg/kg and 0.31 mg/kg, respectively.
With `Cc1nc2ccccn2c(=O)c1CCN1CCC(Nc2nc3ccccc3n2Cc2ccc(F)cc2)CC1` [Compound 4], the ED50 in assay [1] (setting [4]) turned out to be 0.31 mg/kg; in assay [2], 0.16 mg/kg.
`Cc1nc2ccccn2c(=O)c1CCN1CCC(Nc2nc3ccccc3n2Cc2ccco2)CC1` [Compound 5]: the ED50 came to 0.04 mg/kg in assay [1] (setting [3]) and 0.16 mg/kg in assay [2].
On to `Cc1nc2ccccn2c(=O)c1CCN1CCC(Nc2nc3cccnc3n2Cc2ccco2)CC1` [Compound 6], for which the ED50 in assay [1] (setting [3]) worked out at 0.63 mg/kg; in assay [2], 0.08 mg/kg.
The corresponding values for `Cc1nc2scc(C)n2c(=O)c1CCN1CCC(Nc2nc3cccnc3n2Cc2ccc(F)cc2)CC1` [Compound 7] are 0.31 mg/kg and 0.04 mg/kg.
As for `Cn1cnc2c1c(=O)n(CCN1CCC(Nc3nc4ccccc4n3Cc3ccc(F)cc3)CC1)c(=O)n2C` [Compound 8], the ED50 worked out at 0.63 mg/kg in assay [1] (setting [4]) and 0.16 mg/kg in assay [2].
Turning to `Cc1nc2scc(C)n2c(=O)c1CCN1CCC(Nc2nc3ccccc3n2Cc2ccco2)CC1` [Compound 9], the ED50 in assay [1] (setting [3]) was 0.16 mg/kg; in assay [2] it was 0.08 mg/kg.
With `Cc1nc2scc(C)n2c(=O)c1CCN1CCC(Nc2nc3cccnc3n2Cc2ccco2)CC1` [Compound 10], the ED50 was 0.16 mg/kg in assay [1] (setting [3]) and 0.08 mg/kg in assay [2].
For `Cn1cnc2c1c(=O)n(CCN1CCC(Nc3nc4ccccc4n3Cc3ccco3)CC1)c(=O)n2C` [Compound 11], the ED50 amounted to 0.04 mg/kg in assay [1] (setting [3]) and 0.08 mg/kg in assay [2].
With `Cn1cnc2c1c(=O)n(CCN1CCC(Nc3nc4cccnc4n3Cc3ccc(F)cc3)CC1)c(=O)n2C` [Compound 12], the ED50 came out at 0.31 mg/kg in assay [1] (setting [4]) and 0.16 mg/kg in assay [2].
On to `Cc1nc2n(c(=O)c1CCN1CCC(Nc3nc4ccccc4n3Cc3ccco3)CC1)CCCS2` [Compound 13], for which the ED50 in assay [1] (setting [3]) was found to be 0.08 mg/kg; in assay [2] it was 0.02 mg/kg.
For `Cc1nc2n(c(=O)c1CCN1CCC(Nc3nc4cccnc4n3Cc3ccco3)CC1)CCCS2` [Compound 14], the ED50 in assay [2] was found to be 0.02 mg/kg.
Regarding `Cc1nc2n(c(=O)c1CCN1CCC(Nc3nc4ccccc4n3Cc3ccc(F)cc3)CC1)CCCS2` [Compound 15], the values for the ED50 in assay [1] (setting [3]) and in assay [2] were 0.31 mg/kg and 0.16 mg/kg, respectively.
In the case of `Cc1nc2n(c(=O)c1CCN1CCC(Nc3nc4cccnc4n3Cc3ccc(F)cc3)CC1)CCCS2` [Compound 16], in assay [2], the ED50 was determined as 0.16 mg/kg.
Consider `Cc1nc2ccccn2c(=O)c1CCN1CCC(Nc2nc3cccnc3n2Cc2ccc(F)cc2)CC1.Cl.Cl` [Compound 22, 3-[2-[4-[[3-[(4-fluorophenyl)methyl]-3H-imidazo[4,5-b]-pyridin-2-yl]amino]-1-piperidinyl]ethyl]-2-methyl-4H-pyrido[1,2-a]pyrimidin-4-one dihydrochloride], for which, in assay [2], the ED50 was found to be 0.16 mg/kg.
Turning to `O=c1[nH]c2ccccc2c(=O)n1CCN1CCC(Nc2nc3cccnc3n2Cc2ccc(F)cc2)CC1` [Compound 25], in assay [2], the ED50 was found to be 0.16 mg/kg.
The same measure, in the same setting: under `O=c1[nH]c2ccccc2c(=O)n1CCN1CCC(Nc2nc3cccnc3n2Cc2ccco2)CC1` [Compound 26] stands 0.08 mg/kg; under `Cc1nc2sccn2c(=O)c1CCN1CCC(Nc2nc3ccccc3n2Cc2ccc(F)cc2)CC1` [Compound 27], 0.08 mg/kg; under `O=c1[nH]c2ccccc2c(=O)n1CCCN1CCC(Nc2nc3ccccc3n2Cc2ccco2)CC1` [Compound 30], 0.16 mg/kg.
Still for that read-out and setting: then `O=c1[nH]c2ccccc2c(=O)n1CCCN1CCC(Nc2nc3cccnc3n2Cc2ccco2)CC1` [Compound 32], with 0.04 mg/kg; and `Cn1c(=O)n(CCN2CCC(Nc3nc4cccnc4n3Cc3ccco3)CC2)c(=O)c2ccccc21` [Compound 35], with 0.02 mg/kg.
On the same count and under the same terms, then `Cn1c(=O)n(CCN2CCC(Nc3nc4cccnc4n3Cc3ccc(F)cc3)CC2)c(=O)c2ccccc21` [Compound 36], with 0.16 mg/kg; and `O=c1[nH]c2ccccc2c(=O)n1CCCN1CCC(Nc2nc3cccnc3n2Cc2ccc(F)cc2)CC1` [Compound 37], with 0.16 mg/kg; and `Cn1c(=O)c2c(ncn2CCN2CCC(Nc3nc4cccnc4n3Cc3ccco3)CC2)n(C)c1=O` [Compound 42], with 0.16 mg/kg.
Take `Cn1c(=O)c2c(ncn2CCN2CCC(Nc3nc4cccnc4n3Cc3ccc(F)cc3)CC2)n(C)c1=O` [Compound 43]: the ED50 in assay [2] turned out to be 0.16 mg/kg.
On to `Cc1nc2n(c(=O)c1CCN1CCC(Nc3nc4ccccc4n3Cc3ccco3)CC1)CCCC2` [Compound 44], for which the ED50 in assay [2] is 0.16 mg/kg.
Same read-out and setting: then `Cc1nc2n(c(=O)c1CCN1CCC(Nc3nc4ccccc4n3Cc3ccc(F)cc3)CC1)CCCC2` [Compound 45], with 0.08 mg/kg; and `Cc1nc2n(c(=O)c1CCN1CCC(Nc3nc4cccnc4n3Cc3ccco3)CC1)CCS2` [Compound 48], with 0.08 mg/kg.
Turning to `Cc1nc2n(c(=O)c1CCN1CCC(Nc3nc4cccnc4n3Cc3ccco3)CC1)C(C)CCC2` (centres unmarked) [Compound 54], the ED50 in assay [2] came out at 0.31 mg/kg.
On the same count and under the same terms, under `Cc1nc2n(c(=O)c1CCN1CCC(Nc3nc4ccccc4n3Cc3ccccn3)CC1)CCCC2` [Compound 57] stands 0.16 mg/kg; under `Cc1nc2ccccn2c(=O)c1CCN1CCC(Nc2nc3ccccc3n2Cc2cnccn2)CC1` [Compound 68, 2-methyl-3-[2-[4-[[1-(2-pyrazinylmethyl)-1H-benzimidazol-2-yl]amino]-1-piperidinyl]ethyl]-4H-pyrido[1,2-a]pyrimidin-4-one], 0.08 mg/kg.
On to `Cc1nc2n(c(=O)c1CCN1CCC(Nc3nc4ccccc4n3Cc3ccc(Cl)cc3)CC1)CCCC2` [Compound 69], for which the ED50 in assay [2] came to 0.16 mg/kg.
Take `Cc1nc2cccc(C)n2c(=O)c1CCN1CCC(Nc2nc3cccnc3n2Cc2ccco2)CC1` [Compound 75]: the ED50 in assay [2] is 0.01 mg/kg.
Still for that read-out and setting: under `Cc1nc2ccc(Br)cn2c(=O)c1CCN1CCC(Nc2nc3cccnc3n2Cc2ccco2)CC1` [Compound 76] stands 0.08 mg/kg.
For the compound `Cc1nc2ccccn2c(=O)c1CCN1CCC(Nc2nc3ccncc3n2Cc2ccc(F)cc2)CC1` [Compound 79], in assay [2], the ED50 was 0.16 mg/kg.
For the compound `Cc1nc2c(NCCN3CCC(Nc4nc5ccccc5n4Cc4ccc(F)cc4)CC3)ncnc2n1C` [Compound 96], in assay [2], the ED50 is 0.16 mg/kg.
Same read-out and setting: under `Cn1cnc2c(NCCN3CCC(Nc4nc5ccccc5n4Cc4ccccc4)CC3)ncnc21` [Compound 100] stands 0.16 mg/kg.
With `Cn1cnc2c(NCCN3CCC(Nc4nc5cc(O)ccc5n4Cc4ccc(F)cc4)CC3)ncnc21` [Compound 102], in assay [2], the ED50 came to 0.08 mg/kg.
Still for that read-out and setting: under `Fc1ccc(Cn2c(NC3CCN(CCOc4nc5cccnc5s4)CC3)nc3ccccc32)cc1` [Compound 107, 1-[(4-fluorophenyl)methyl]-N-[1-[2-[(thiazolo[5,4-b]pyridin-2-yl)oxy]ethyl]-4-piperidinyl]-1H-benzimidazol-2-amine] stands 0.16 mg/kg.
On the same count and under the same terms, under `c1ccc(Cn2c(NC3CCN(CCNc4nc5cnccc5[nH]4)CC3)nc3cccnc32)nc1` [Compound 113] stands 0.04 mg/kg; under `O=c1[nH]c2ccccc2c(=O)n1CCCCN1CCC(Nc2nc3ccccc3n2Cc2ccco2)CC1` [Compound 128, 3-[4-[4-[[1-(2-furanylmethyl)-1H-benzimidazol-2-yl]amino]-1-piperidinyl]-butyl]-2,4(1H,3H)-quinazolinedione], 0.08 mg/kg.
Take `O=c1c2ccccc2[nH]c(=S)n1CCN1CCC(Nc2nc3ccccc3n2Cc2ccco2)CC1` [Compound 132, 3-[2-[4-[[1-(2-furanylmethyl)-1H-benzimidazol-2-yl]amino]-1-piperidinyl]ethyl]-2,3-dihydro-2-thioxo-4(1H)-quinazolinone]: the ED50 in assay [2] came out at 0.16 mg/kg.
As for `O=c1[nH]c2c(Cl)ncnc2n1CCN1CCC(Nc2nc3ccccc3n2Cc2ccc(F)cc2)CC1` [Compound 144, 6-chloro-9-[2-[4-[[1-[(4-fluorophenyl)methyl]-1H-benzimidazol-2-yl]amino]-1-piperidinyl]ethyl]-7,9-dihydro-8H-purin-8-one], in assay [2], the ED50 is 0.08 mg/kg.
Still for that read-out and setting: under `Fc1ccc(Cn2c(NC3CCN(CCc4cn5cccnc5n4)CC3)nc3ccccc32)cc1` [Compound 151, 1-[(4-fluorophenyl)methyl]-N-[1-[2-(imidazo[3,2-a]pyrimidin-2-yl)ethyl]-4-piperidinyl]-1H-benzimidazol-2-amine] stands 0.08 mg/kg.

Source of the values: US4695569A, “Bicyclic heterocyclyl containing N-(bicyclic heterocyclyl)-4-piperidinamines” (Janssen Pharmaceutica N.V., priority 1987, dated 1987).
